The target of the test is T1, TYK2 (Homo sapiens, UniProt P29597).
T1 construct: Degradation of TYK2 in cells was quantitatively measured using Meso Scale Discovery (MSD) technology; endogenous in cells; host or cells: OCI-LY10
The experiment in a line: TYK2 MSD degradation in OCI-LY10 cells. Type of test: cell-based. The following applies: TYK2 degradation in OCI-LY10 cells, 4 to 24 hours incubation; for DC50: read-out: TYK2 MSD OCI-LY10 Rel-DC50. Put shortly: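 OCI-LY10 cells were treated with 9-dose 1:3 series (top 1 to 10 μM final) for 4 to 24 hours at 37° C. Lysate TYK2 quantified by MSD sandwich immunoassay; DC50 and Dmax from four-parameter inhibitor vs. response fit.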

This is an account of results in US20260125400A1, “TYK2 DEGRADERS AND USES THEREOF” (Kymera Therapeutics, Inc., priority 2023, published 2026).

A value given as a limit tells only on which side of the number the result lay.

T1 sequence (P29597 whole entry): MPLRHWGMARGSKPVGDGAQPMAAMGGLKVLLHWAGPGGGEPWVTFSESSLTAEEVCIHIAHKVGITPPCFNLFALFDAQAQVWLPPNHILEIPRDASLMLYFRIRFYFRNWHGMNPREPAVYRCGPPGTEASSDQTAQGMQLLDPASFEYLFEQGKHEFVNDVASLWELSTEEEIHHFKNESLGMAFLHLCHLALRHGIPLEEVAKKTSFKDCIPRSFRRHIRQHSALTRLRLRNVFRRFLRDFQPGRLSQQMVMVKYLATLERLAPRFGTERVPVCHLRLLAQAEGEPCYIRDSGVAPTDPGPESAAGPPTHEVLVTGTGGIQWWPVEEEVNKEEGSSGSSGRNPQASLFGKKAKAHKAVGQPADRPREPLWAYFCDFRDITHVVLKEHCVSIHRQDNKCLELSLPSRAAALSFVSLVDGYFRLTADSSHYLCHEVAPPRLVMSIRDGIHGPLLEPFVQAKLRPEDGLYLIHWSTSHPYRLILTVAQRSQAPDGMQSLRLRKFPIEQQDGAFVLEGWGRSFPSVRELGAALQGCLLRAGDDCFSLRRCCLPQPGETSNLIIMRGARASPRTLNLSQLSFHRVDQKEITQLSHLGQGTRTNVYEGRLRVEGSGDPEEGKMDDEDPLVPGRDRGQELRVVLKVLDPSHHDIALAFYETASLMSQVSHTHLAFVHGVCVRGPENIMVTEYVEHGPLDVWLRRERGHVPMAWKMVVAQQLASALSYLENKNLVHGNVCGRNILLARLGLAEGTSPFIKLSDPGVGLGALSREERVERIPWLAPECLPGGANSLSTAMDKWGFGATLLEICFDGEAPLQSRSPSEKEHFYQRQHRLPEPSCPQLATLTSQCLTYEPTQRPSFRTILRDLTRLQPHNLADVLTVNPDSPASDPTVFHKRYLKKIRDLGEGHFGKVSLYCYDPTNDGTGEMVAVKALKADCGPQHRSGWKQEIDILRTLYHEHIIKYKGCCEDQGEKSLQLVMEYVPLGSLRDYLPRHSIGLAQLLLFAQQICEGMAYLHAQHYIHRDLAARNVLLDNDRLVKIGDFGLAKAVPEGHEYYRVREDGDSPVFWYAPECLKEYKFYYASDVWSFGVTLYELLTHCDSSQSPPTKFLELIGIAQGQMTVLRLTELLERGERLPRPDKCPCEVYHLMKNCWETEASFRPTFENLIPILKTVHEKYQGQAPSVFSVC

For orientation: Dmax means the greatest extent of degradation seen. In general, DC50 refers to the concentration giving 50% degradation. Consider `CNc1cc(N2CCc3c(CN4CCC(CN5CCC6(CC5)CCN(C(=O)c5ccc(Cl)c(N7CCC(=O)NC7=O)c5)CC6)C(F)(F)C4)cccc32)nn2c(C(=O)N[C@@H]3CC[C@H]3OC)cnc12` (stereo partly drawn) [I-1074, 6-(4-{[4-({9-[14-chloro-3-(2,4-dioxo-1,3-diazinan-1-yl)benzoyl]-3,9-diazaspiro[5.5]undecan-3-yl}methyl)-3,3-difluoropiperidin-1-yl]methyl}-2,3-dihydroindol-1-yl)-N-[(1R,2R)-2-methoxycyclobutyl]-8-(methylamino)imidazo[1,2-b]pyridazine-3-carboxamide], for which the Dmax was > 90% and the 50% degradation concentration (DC50) is < 1 nM.

For `CNc1cc(N2CCc3c(-c4ccc(CN5CC6(CCN(C(=O)c7cc(C)c(Cl)c(N8CCC(=O)NC8=O)c7)CC6(F)F)C5)cn4)cccc32)nn2c(C(=O)NCc3ncco3)cnc12` [I-1077], the “TYK2 MSD OCI-LY10 Dmax %” value is “B (B (90 to >75%))” and the DC50 was < 1 nM.

In the case of `CNc1cc(N2CCc3c(CN4CCC(N5CCC6(CCN(C(=O)c7cc(F)c(Cl)c(N8CCC(=O)NC8=O)c7)CC6)CC5)C(F)(F)C4)cccc32)nn2c(C(=O)NC3CCC3OC)cnc12` (stereo not shown) [I-1078], the “TYK2 MSD OCI-LY10 Dmax %” value is “A (A (>90%))” and the 50% degradation concentration (DC50) was < 1 nM.

`CNc1cc(N2CCc3c(CN4CCC(N5CCC6(CCN(C(=O)c7cc(F)c(C)c(N8CCC(=O)NC8=O)c7)CC6)CC5)C(F)(F)C4)cccc32)nn2c(C(=O)N[C@@H]3CC[C@H]3OC)cnc12` (stereo partly shown) [I-1081]: the “TYK2 MSD OCI-LY10 Dmax %” value was “A (A (>90%))” and the DC50 is < 1 nM.

Turning to `CNc1cc(N2CCc3c(-c4ccc(CN5CCC6(CCN(C(=O)c7ccc(Cl)c(N8CCC(=O)NC8=O)c7)C6)C(F)(F)C5)cn4)cccc32)nn2c(C(=O)N[C@@H]3C[C@@H]3F)cnc12` (stereo partly shown) [I-1082], the “TYK2 MSD OCI-LY10 Dmax %” value is “B (B (90 to >75%))” and the half-maximal degradation concentration (DC50) was < 1 nM.

For `CNc1cc(N2CCc3c(CN4CCC(N5CCC6(CCN(C(=O)c7cc(N8CCC(=O)NC8=O)c(Cl)cc7F)CC6)CC5)C(F)(F)C4)cccc32)nn2c(C(=O)N[C@@H]3CC[C@H]3OC)cnc12` (stereo partly shown) [I-1084], the “TYK2 MSD OCI-LY10 Dmax %” value was “A (A (>90%))” and the half-maximal degradation concentration (DC50) was < 1 nM.

Regarding `CNc1cc(N2CCc3c(-c4ccc(CN5CCC6(CCN(C(=O)c7ccc(Cl)c(N8CCC(=O)NC8=O)c7)CC6)C(F)(F)C5)cn4)cccc32)nn2c(C(=O)N[C@H]3CC[C@@H]3C(F)(F)F)cnc12` [I-1103], the “TYK2 MSD OCI-LY10 Dmax %” value was “D (D (<50%))” and the DC50 lay in the range of 10 to 100 nM.

Turning to `CNc1cc(N2CCc3c(-c4ccc(CC5CC6(CCN(C(=O)c7cc(F)c(Cl)c(N8CCC(=O)NC8=O)c7)CC6)C5)cn4)cccc32)nn2c(C(=O)N[C@@H]3CC[C@H]3OC)cnc12` [I-1104], the “TYK2 MSD OCI-LY10 Dmax %” value is listed as “A (A (>90%))” and the 50% degradation concentration (DC50) was < 10 nM.

For `CNc1cc(N2CCc3c(-c4ncc(CN5CCC6(CCN(C(=O)c7cc(C)c(Cl)c(N8CCC(=O)NC8=O)c7)CC6)C(F)(F)C5)cc4F)cccc32)nn2c(C(=O)N[C@@H]3CC[C@H]3OC)cnc12` [I-1106], the “TYK2 MSD OCI-LY10 Dmax %” value is “A (A (>90%))” and the half-maximal degradation concentration (DC50) was < 10 nM.

On to `CNc1cc(N2CCc3c(-c4ccc(CC5CCC6(CC5)CCN(C(=O)c5cc(C)c(Cl)c(N7CCC(=O)NC7=O)c5)CC6)cn4)cccc32)nn2c(C(=O)N[C@@H]3CC[C@H]3OC)cnc12` [I-1107], for which the “TYK2 MSD OCI-LY10 Dmax %” value is recorded as “A (A (>90%))” and the DC50 is < 10 nM.

As for `CNc1cc(N2CCc3c(-c4ccc(CN5CCC6(CCN(C(=O)c7ccc(Cl)c(N8CCC(=O)NC8=O)c7)CC6)C(F)(F)C5)cn4)cccc32)nn2c(C(=O)N[C@@H]3CC[C@H]3C(F)(F)F)cnc12` [I-1108], the “TYK2 MSD OCI-LY10 Dmax %” value was “D (D (<50%))” and the DC50 is > 100 nM.

On to `CNc1cc(N2CCc3c(CN4CCC(N5CCC6(CCN(C(=O)c7cc(C)c(Cl)c(N8CCC(=O)NC8=O)c7)CC6)CC5)C(F)(F)C4)cc(F)cc32)nn2c(C(=O)N[C@@H]3CC[C@H]3OC)cnc12` (stereo partly shown) [I-1114], for which the “TYK2 MSD OCI-LY10 Dmax %” value is given as “A (A (>90%))” and the half-maximal degradation concentration (DC50) is < 1 nM.

Consider `CNc1cc(N2CCc3c(CN4CCC(N5CCC6(CCN(C(=O)c7cc(C)c(Cl)c(N8CCC(=O)NC8=O)c7)CC6)CC5)C(F)(F)C4)cc(Cl)cc32)nn2c(C(=O)N[C@@H]3CC[C@H]3OC)cnc12` (stereo partly shown) [I-1116], for which the “TYK2 MSD OCI-LY10 Dmax %” value is reported as “B (B (90 to >75%))” and the DC50 is < 10 nM.

For the molecule `CNc1cc(N2CCc3c(-c4ccc(CN5CC6(CCN(C(=O)c7cc(C)c(Cl)c(N8CCC(=O)NC8=O)c7)CC6(F)F)C5)cn4)cccc32)nn2c(C(=O)N[C@H]3CCC[C@@H]3OC)cnc12` [I-1117], the “TYK2 MSD OCI-LY10 Dmax %” value is reported as “D (D (<50%))” and the DC50 was > 100 nM.

As to `CNc1cc(N2CCc3c(-c4ccc(CN5CCC6(CCN(C(=O)c7ccc(Cl)c(N8CCC(=O)NC8=O)c7)CC6)C(F)(F)C5)cn4)cccc32)nn2c(C(=O)NC3CC(C(F)(F)F)C3)cnc12` (stereo not shown) [I-1118], the “TYK2 MSD OCI-LY10 Dmax %” value is on record as “C (C (75 to 50%))” and the 50% degradation concentration (DC50) lay within 10 to 100 nM.

Regarding `CNc1cc(N2CCc3c(-c4ccc(CC5(F)CC6(CCN(C(=O)c7cc(N8CCC(=O)NC8=O)c(C)cc7F)CC6)C5)cn4)cccc32)nn2c(C(=O)N[C@@H]3CC[C@H]3OC)cnc12` [I-1121], the “TYK2 MSD OCI-LY10 Dmax %” value is reported as “A (A (>90%))” and the 50% degradation concentration (DC50) is < 1 nM.

With `CNc1cc(N2CCc3c(CN4CCC(CN5CCC6(CCN(C(=O)c7cc(C)c(Cl)c(N8CCC(=O)NC8=O)c7)CC6)C(F)(F)C5)C(F)(F)C4)cccc32)nn2c(C(=O)N[C@@H]3CC[C@H]3OC)cnc12` (stereo partly shown) [I-1122], the “TYK2 MSD OCI-LY10 Dmax %” value was “A (A (>90%))” and the DC50 was < 1 nM.

Take `CNc1cc(N2CCc3c(CN4CCC(CN5CCC6(CCN(C(=O)c7ccc(Cl)c(N8CCC(=O)NC8=O)c7)CC6)C(F)(F)C5)C(F)(F)C4)cccc32)nn2c(C(=O)N[C@@H]3CC[C@H]3OC)cnc12` (stereo partly shown) [I-1124]: the “TYK2 MSD OCI-LY10 Dmax %” value is reported as “A (A (>90%))” and the 50% degradation concentration (DC50) was < 1 nM.

As to `CNc1cc(N2CCc3c(CN4CCC(N5CCC6(CCN(C(=O)c7cc(N8CCC(=O)NC8=O)c(C)c(Cl)c7F)CC6)CC5)C(F)(F)C4)cccc32)nn2c(C(=O)N[C@@H]3CC[C@H]3OC)cnc12` (stereo partly shown) [I-1125], the “TYK2 MSD OCI-LY10 Dmax %” value was “A (A (>90%))” and the half-maximal degradation concentration (DC50) was < 1 nM.

As to `CNc1cc(N2CCc3c([C@H](C)N4CC[C@H](N5CCC6(CCN(C(=O)c7cc(C)c(Cl)c(N8CCC(=O)NC8=O)c7)CC6)CC5)C(F)(F)C4)cccc32)nn2c(C(=O)N[C@@H]3CC[C@H]3OC)cnc12` [I-1127], the “TYK2 MSD OCI-LY10 Dmax %” value was “A (A (>90%))” and the half-maximal degradation concentration (DC50) is < 1 nM.

For the molecule `CNc1cc(N2CCc3c([C@@H](C)N4CC[C@H](N5CCC6(CCN(C(=O)c7cc(C)c(Cl)c(N8CCC(=O)NC8=O)c7)CC6)CC5)C(F)(F)C4)cccc32)nn2c(C(=O)N[C@@H]3CC[C@H]3OC)cnc12` [I-1128], the “TYK2 MSD OCI-LY10 Dmax %” value is recorded as “A (A (>90%))” and the DC50 was < 1 nM.

Take `COC1(c2cc(C)cc(-c3cn(CCC4CCN(C5CCN(c6cc(F)c(C7CCC(=O)NC7=O)c(F)c6)CC5)CC4)c4cnc(NC(C)=O)cc34)n2)CCOC1` (stereo not shown) [I-1130]: the “TYK2 MSD OCI-LY10 Dmax %” value was “B (B (90 to >75%))” and the 50% degradation concentration (DC50) was < 10 nM.

With `CNc1cc(N2CCc3c(-c4ncc(CN5CC6(CCN(C(=O)c7cc(N8CCC(=O)NC8=O)c(C)c(Cl)c7F)CC6(F)F)C5)cc4F)cccc32)nn2c(C(=O)N[C@@H]3CC[C@H]3OC)cnc12` [I-1133], the “TYK2 MSD OCI-LY10 Dmax %” value was “A (A (>90%))” and the 50% degradation concentration (DC50) was < 1 nM.
